Results published in patent US9259389B2, “Pharmaceutical oral dosage form containing a synthetic oligosaccharide” (ENDOTIS PHARMA, priority 2009, dated 2016).
Like-named read-outs stand apart in the source and are kept apart here.

Assay: Bioavailability after Direct Intra-Duodenal Infusion (DIDI) administration in rat
Type: in vivo
Settings: for bioavailability: female, Wistar Han, plasma, other: direct intra-duodenal infusion (DIDI), read-out: DIDI (bioavailability F after Direct Intra-Duodenal Infusion)
Source text: Pharmacokinetic Study after Direct Intra-Duodenal Injection:
Direct Intra-Duodenal Infusion (DIDI) has been performed in fasted female Wistar Han rats (175-250 g) to determine the ability of oligosaccharide compounds, in a formulation according to the present invention, to cross the intestinal barrier.
Animals were anesthetized with isoflurane gas in a closed induction chamber and held under anesthesia (3% isoflurane and 2.4 l/min rate) until sacrifice at the end of the experiment. After shaving, a laparotomy was performed and the duodenum exposed. A small pore was created upper the bile duct into the duodenum using a high temperature cautery fine tip. A flexible catheter was inserted into the duodenal lumen through the hole and the upper part of the duodenum was closed and the catheter immobilized by clipping with a forceps. A syringe containing the formulation according to the present invention and diluted as indicated below was placed onto the flexible catheter and the syringe's plunger was slowly depressed releasing the material into the duodenum. Immediately after, a 0.9% NaCl solution was injected (50 μl) to ensure complete compound administration. At this step, peritoneal cavity and skin of the rats were closed using silk suture.
The dose of the oligosaccharide compound according to the present invention to be administrated is 2 mg/kg of body weight or 4 mg/kg of body weight. Therefore, each rat received the quantity of the formulation corresponding to this dosage (i.e. for the dose of 2 mg/kg of body weight, 0.4 mg per rat of 200 g, corresponding to 40 mg of formulation for a formulation containing 1% by weight of the oligosaccharide), diluted extemporaneously at ambient temperature in water for injection with a total volume of administration of 500 μl.
Sometimes, it can be advantageous to first heat the formulation to 37° C. for 15 min under agitation to optimize dilution of the formulation.
Blood samples were collected over a certain period of time (in general 0.25; 0.5; 1; 1.5; 2; 2.5 h) and plasma analyzed as described below.
Quantification of the Compounds in Plasma:
Plasma concentration of the synthetic oligosaccharide (μg compound/mL plasma) was determined using a bioassay based on the factor Xa inhibitory activity of the compounds in the presence of antithrombin (AT). First, AT was added in excess to the plasma sample, allowing 1/1 oligosaccharide/AT complex formation. Factor Xa was then added in excess, and remaining active factor Xa was determined by spectrophotometry at 405 nm using a chromogenic reagent as a substrate. A dose-response curve was established for each compound to be quantified in rat plasma.
Pharmacokinetic Study after Intravenous Administration: […]

Fondaparinux Benzathine
DIDI (bioavailability F after Direct Intra-Duodenal Infusion) (active: Fondaparinux Benzathine, 2 mg/kg, AUC0-2 DIDI vs intravenous): 2 ± 1%

CO[C@H]1O[C@H](COS(=O)(=O)O)[C@@H](O[C@@H]2O[C@@H](C(=O)O)[C@@H](O[C@H]3O[C@H](COS(=O)(=O)O)[C@@H](O[C@@H]4O[C@H](C(=O)O)[C@@H](O[C@H]5O[C@H](COS(=O)(=O)O)[C@@H](O)[C@H](O)[C@H]5NS(=O)(=O)O)[C@H](O)[C@H]4O)[C@H](OS(=O)(=O)O)[C@H]3NS(=O)(=O)O)[C@H](O)[C@H]2OS(=O)(=O)O)[C@H](O)[C@H]1NS(=O)(=O)O [Fondaparinux, reference compound]
bioavailability (active: sodium fondaparinux, dose delivered 2 mg/kg, AUC0-2 DIDI vs intravenous): 3%

CCCCOC1C(COS(=O)(=O)[O-])OC(OC2C(OC)C(OC)C(OC3C(COS(=O)(=O)[O-])OC(OC4COC(OC5C(COS(=O)(=O)[O-])OC(OC)C(OS(=O)(=O)[O-])C5O)[C@H](OCC(=O)[O-])C4OC)C(OS(=O)(=O)[O-])C3OS(=O)(=O)[O-])OC2(CC)C(=O)[O-])C(N)C1OCCCC.[Na+].[Na+].[Na+].[Na+].[Na+].[Na+].[Na+].[Na+] (stereo partly shown) [Sodium salt of 122 without formulation]
bioavailability (active: sodium salt of compound 122, AUC0-2 DIDI vs intravenous): 2.5 ± 1%

CCC1(C(=O)[O-])OC(OC2C(COS(=O)(=O)[O-])OC(OC3COC(OC4C(COS(=O)(=O)[O-])OC(OC)C(OS(=O)(=O)[O-])C4OC)[C@H](OCC(=O)[O-])C3OC)C(OS(=O)(=O)[O-])C2OS(=O)(=O)[O-])C(OC)C(OC)C1OC1OC(COS(=O)(=O)[O-])C(OCCOCCOCCOCCN)C(OC)C1OC.[Na+].[Na+].[Na+].[Na+].[Na+].[Na+].[Na+].[Na+] (stereo partly shown) [Sodium salt of 147 without formulation]
bioavailability (active: sodium salt of compound 147, AUC0-2 DIDI vs intravenous): 1 ± 10%
